The values that follow come from patent US8030336B2, “Nicotinamide-based kinase inhibitors” (YM Biosciences Australia Pty Ltd, priority 2002, dated 2011).

What all share (format): biochemical
Assay [1] deals with T1, human JAK2 (Homo sapiens, UniProt O60674).
T1 construct: The kinase domain of human JAK2 was amplified from U937mRNA; His tag (from the pFastBac HTc vector) (N); made in house; host or cells: baculovirus; Sf9 for virus, High Five insect cells for production
Briefly: JAK2 kinase assay (ELISA or Alphascreen). As to conditions: read-out: Jak2 inhibition of enzyme activity. In a few lines: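 His-tagged human JAK2 kinase domain from baculovirus-infected insect cells, ~1.5 μg per assay, in 50 mM HEPES pH 7.5, 10 mM MgCl2, 150 mM NaCl, with 10 μM–1 mM ATP and 5 μM biotinylated peptide substrate. Phosphotyrosine detected by PY20 ELISA or AlphaScreen.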
On the technique in general: ELISA stands for enzyme-linked immunosorbent assay.

The target in assay [2] is T2, human JAK3 (Homo sapiens, UniProt P52333).
T2 construct: The kinase domain of human JAK3 was amplified from U937mRNA; His tag (from the pFastBac HTb vector) (N); made in house; host or cells: baculovirus; Sf9 for virus, High Five insect cells for production
T2 sequence (P52333 822-1111 limits assumed): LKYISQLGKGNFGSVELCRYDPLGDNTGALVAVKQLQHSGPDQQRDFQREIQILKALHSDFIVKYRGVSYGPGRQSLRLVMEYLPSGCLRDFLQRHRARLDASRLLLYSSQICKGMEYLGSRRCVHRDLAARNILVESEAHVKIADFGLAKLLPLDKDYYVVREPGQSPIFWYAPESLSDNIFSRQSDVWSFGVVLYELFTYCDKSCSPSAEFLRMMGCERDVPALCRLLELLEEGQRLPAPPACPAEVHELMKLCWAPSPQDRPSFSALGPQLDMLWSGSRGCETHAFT
The experiment in a line: JAK3 kinase assay (ELISA or Alphascreen). As to conditions: read-out: Jak3 inhibition of enzyme activity. A digest of the protocol:
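Read-out: anti-phosphotyrosine detection of a 5 μM biotin-peptide substrate, via PY20-peroxidase ELISA or Alphascreen beads. Enzyme was nickel-purified recombinant JAK3 kinase domain (~1.5 μg), with ATP at 10 μM-1 mM, pH 7.5 HEPES/MgCl2/NaCl.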

Assay [3] deals with T3, abl (Homo sapiens, UniProt P00519).
T3 sequence (P00519 242-493 limits assumed): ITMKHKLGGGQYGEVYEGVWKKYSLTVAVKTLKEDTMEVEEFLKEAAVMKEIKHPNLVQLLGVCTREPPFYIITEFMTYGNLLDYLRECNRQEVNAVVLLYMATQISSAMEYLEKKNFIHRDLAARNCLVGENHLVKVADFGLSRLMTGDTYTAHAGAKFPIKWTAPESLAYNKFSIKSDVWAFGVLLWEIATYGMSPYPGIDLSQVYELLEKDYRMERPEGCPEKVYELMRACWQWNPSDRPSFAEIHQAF
The experiment in a line: abl kinase assay (ELISA or Alphascreen). As to conditions: read-out: abl inhibition of enzyme activity. A digest of the protocol:
(§1)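 PTK domain ~1.5 μg; 50 mM HEPES pH 7.5, 10 mM MgCl2, 150 mM NaCl; ATP 10 μM-1 mM; biotinylated peptide 5 μM final. Read-out: avidin-capture ELISA with PY20 or Alphascreen pTyr acceptor/streptavidin donor beads.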

For assay [4], the target named is fes (Homo sapiens, UniProt P07332). Briefly: fes kinase assay (ELISA or Alphascreen). To be noted: read-out: fes inhibition of enzyme activity. A digest of the protocol: as §1
fes, sequence (P07332 561-822 limits assumed, species assumed): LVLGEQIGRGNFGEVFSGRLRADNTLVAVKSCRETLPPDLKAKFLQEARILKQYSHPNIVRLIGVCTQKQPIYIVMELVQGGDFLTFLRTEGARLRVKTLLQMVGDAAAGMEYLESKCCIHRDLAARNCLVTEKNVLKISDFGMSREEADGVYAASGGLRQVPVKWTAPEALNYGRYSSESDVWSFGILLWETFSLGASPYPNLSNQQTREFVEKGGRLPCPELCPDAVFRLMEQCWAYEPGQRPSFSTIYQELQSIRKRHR
Assay [5] addresses T4, fms (Homo sapiens, UniProt P07333).
T4 sequence (P07333 582-910 limits assumed): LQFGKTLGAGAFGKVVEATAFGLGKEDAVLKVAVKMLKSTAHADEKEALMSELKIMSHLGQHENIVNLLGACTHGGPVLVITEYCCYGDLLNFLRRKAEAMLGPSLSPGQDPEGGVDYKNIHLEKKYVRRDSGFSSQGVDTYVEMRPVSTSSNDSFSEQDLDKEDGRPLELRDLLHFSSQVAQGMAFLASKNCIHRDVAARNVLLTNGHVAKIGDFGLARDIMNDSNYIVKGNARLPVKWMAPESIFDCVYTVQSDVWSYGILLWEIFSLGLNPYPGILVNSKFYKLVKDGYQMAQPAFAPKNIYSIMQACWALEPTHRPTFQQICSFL
The experiment in a line: fms kinase assay (ELISA or Alphascreen). As to conditions: read-out: fms inhibition of enzyme activity. A digest of the protocol: as §1

Assay [6] has as its target hck (Homo sapiens, UniProt P08631). Briefly: hck kinase assay (ELISA or Alphascreen). As to conditions: read-out: hck inhibition of enzyme activity. A digest of the protocol:
as §1

For assay [7], the target named is T5, Zap70 (Homo sapiens, UniProt P43403).
T5 sequence (P43403 338-600 limits assumed): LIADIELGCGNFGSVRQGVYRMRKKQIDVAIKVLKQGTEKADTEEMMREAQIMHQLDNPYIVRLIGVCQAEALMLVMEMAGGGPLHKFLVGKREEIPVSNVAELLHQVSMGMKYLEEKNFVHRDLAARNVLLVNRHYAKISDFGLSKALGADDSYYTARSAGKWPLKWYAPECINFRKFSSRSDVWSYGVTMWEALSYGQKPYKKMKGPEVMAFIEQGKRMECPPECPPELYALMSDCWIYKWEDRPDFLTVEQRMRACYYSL
The experiment in a line: Zap70 kinase assay (ELISA or Alphascreen). To be noted: read-out: Zap70 inhibition of enzyme activity. A digest of the protocol:
as §1

hck, sequence (P08631 262-515 limits assumed, species assumed): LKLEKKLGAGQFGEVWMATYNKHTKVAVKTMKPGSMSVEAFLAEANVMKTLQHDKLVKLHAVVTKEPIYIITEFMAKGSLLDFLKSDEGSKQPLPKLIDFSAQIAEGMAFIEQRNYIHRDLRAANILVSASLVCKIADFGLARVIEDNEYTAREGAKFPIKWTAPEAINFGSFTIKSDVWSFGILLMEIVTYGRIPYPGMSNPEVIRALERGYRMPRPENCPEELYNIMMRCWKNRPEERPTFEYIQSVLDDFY
T1 sequence (O60674 849-1124 limits assumed): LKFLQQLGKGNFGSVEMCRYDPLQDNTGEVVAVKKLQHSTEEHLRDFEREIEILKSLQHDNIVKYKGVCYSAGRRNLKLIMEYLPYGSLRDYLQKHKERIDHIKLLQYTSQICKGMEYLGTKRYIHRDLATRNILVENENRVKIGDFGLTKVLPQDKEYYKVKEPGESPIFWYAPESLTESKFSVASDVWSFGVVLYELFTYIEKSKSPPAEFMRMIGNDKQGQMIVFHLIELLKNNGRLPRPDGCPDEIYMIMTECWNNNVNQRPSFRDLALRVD

`COc1cc(-c2cncc(C(=O)Nc3ccccc3C)c2)cc(OC)c1OC`: the inhibition at 10 µM is < 50% in assay [1]; < 50% in assay [2]; ≥ 50% in assay [3]; < 50% in assay [4]; ≥ 50% in assay [5]; ≥ 50% in assay [6]. Moreover, in assay [7], the inhibition at 10 µM is < 50%.

Turning to `COc1cc(-c2cncc(C(=O)OC(C)(C)C)c2)ccc1O`, the inhibition at 10 µM in assay [1] is < 50%; in assay [2] it was < 50%; in assay [3] it was < 50%; in assay [4] it was < 50%; in assay [5] it was ≥ 50%; in assay [6], < 50%. Further, in assay [7], the inhibition at 10 µM was < 50%.

As for `COc1ccc(CNC(=O)c2cncc(-c3cc(C)c(O)c(C)c3)c2)cc1`, the inhibition at 10 µM in assay [2], in assay [3], in assay [4], in assay [5], in assay [6] and in assay [7] was < 50% in each case.

As to `Cc1cc(F)ccc1NC(=O)c1cncc(-c2cc(C)c(O)c(C)c2)c1`, the inhibition at 10 µM in assay [1] was < 50%; in assay [2] it was < 50%; in assay [3], ≥ 50%; in assay [4], < 50%; in assay [5] it was ≥ 50%; in assay [6], ≥ 50%.

For the compound `COc1cc(-c2cncc(C(=O)N[C@H](C)c3ccccc3)c2)c(Cl)c(OC)c1OC`, the inhibition at 10 µM in assay [1], in assay [2], in assay [3], in assay [4], in assay [5] and in assay [6] was < 50% each time.

On to `COc1cc(-c2cncc(C(=O)Nc3cc(C)ccc3C)c2)c(Cl)c(OC)c1OC`, for which the inhibition at 10 µM in assay [1] was < 50%; in assay [2], < 50%; in assay [3] it was < 50%; in assay [4], < 50%; in assay [5] it was ≥ 50%; in assay [6] it was ≥ 50%.

As for `COc1cc(-c2cncc(C(=O)Nc3ccccc3C)c2)c(Cl)c(OC)c1OC`, the inhibition at 10 µM in assay [1] was < 50%; in assay [2], < 50%; in assay [3], < 50%; in assay [4], < 50%; in assay [5] it was ≥ 50%; in assay [6], ≥ 50%. Besides, the inhibition at 10 µM in assay [7] was < 50%.

In the case of `CC(C)C(CO)NC(=O)c1cncc(-c2ccc3c(c2)OCO3)c1` (stereo not drawn), the inhibition at 10 µM in assay [2], in assay [3], in assay [4], in assay [5], in assay [6] and in assay [7] was < 50% throughout.

`Cc1ccc(F)cc1NC(=O)c1cncc(-c2ccc3c(c2)OCO3)c1`: the inhibition at 10 µM in assay [1], in assay [2], in assay [3], in assay [4], in assay [5] and in assay [6] was < 50% in each case. The inhibition at 10 µM in assay [7] is < 50%.

Regarding `O=C(Nc1ccccc1)c1cncc(-c2cccs2)c1`, the inhibition at 10 µM in assay [1] is < 50%; in assay [2], < 50%; in assay [3], < 50%; in assay [4], ≥ 50%; in assay [5] it was < 50%; in assay [6], < 50%. Besides, the inhibition at 10 µM in assay [7] is < 50%.

Turning to `CC(C)NC(=O)c1cncc(-c2cccs2)c1`, the inhibition at 10 µM in assay [1] is < 50%; in assay [2], < 50%; in assay [3], < 50%; in assay [4], ≥ 50%; in assay [5], ≥ 50%; in assay [6], < 50%. The inhibition at 10 µM in assay [7] is < 50%.

Consider `Cc1ccc(CNC(=O)c2cncc(-c3cccs3)c2)cc1`, for which the inhibition at 10 µM in assay [2] was < 50%; in assay [3], < 50%; in assay [4], ≥ 50%; in assay [5], < 50%; in assay [6] it was < 50%; in assay [7], < 50%.

Take `O=C(Nc1ccc(N2CCOCC2)cc1)c1cncc(-c2cccs2)c1`: the inhibition at 10 µM in assay [1] is < 50%; in assay [2], < 50%; in assay [3] it was < 50%; in assay [4], ≥ 50%; in assay [5] it was < 50%; in assay [6], < 50%. For the same compound, the inhibition at 10 µM in assay [7] is < 50%.

`Cc1ccc(F)cc1NC(=O)c1cncc(-c2cccs2)c1`: the inhibition at 10 µM in assay [1] was < 50%; in assay [2], < 50%; in assay [3], < 50%; in assay [4] it was < 50%; in assay [5], ≥ 50%; in assay [6], ≥ 50%. In assay [7], the inhibition at 10 µM is < 50%.

For the compound `CN(Cc1ccccc1)C(=O)c1cncc(-c2cccs2)c1`, the inhibition at 10 µM was < 50% in assay [1]; < 50% in assay [2]; < 50% in assay [3]; ≥ 50% in assay [4]; < 50% in assay [5]; < 50% in assay [6]. Moreover, in assay [7], the inhibition at 10 µM was < 50%.

`CC(CCc1ccccc1)NC(=O)c1cncc(-c2cccs2)c1` (stereo not drawn): the inhibition at 10 µM in assay [1] was < 50%; in assay [2] it was < 50%; in assay [3] it was < 50%; in assay [4], ≥ 50%; in assay [5], < 50%; in assay [6], < 50%. Further, the inhibition at 10 µM in assay [7] was < 50%.

For `CC(NC(=O)c1cncc(-c2cccs2)c1)c1ccc(F)cc1` (stereo not drawn), the inhibition at 10 µM is < 50% in assay [1]; < 50% in assay [2]; < 50% in assay [3]; ≥ 50% in assay [4]; < 50% in assay [5]; < 50% in assay [6]. Further, the inhibition at 10 µM in assay [7] was < 50%.

In the case of `CC(C)C(CO)NC(=O)c1cncc(-c2cccnc2)c1` (stereo not drawn), the inhibition at 10 µM in assay [2], in assay [3], in assay [4], in assay [5], in assay [6] and in assay [7] was < 50% each time.

As for `O=C(Nc1ccccc1)c1cncc(-c2cccnc2)c1`, the inhibition at 10 µM in assay [1], in assay [2], in assay [3], in assay [4], in assay [5] and in assay [6] was < 50% throughout. In addition, the inhibition at 10 µM in assay [7] is ≥ 50%.

With `COc1cc(-c2cncc(C(=O)Nc3cc(F)ccc3C)c2)ccc1O`, the inhibition at 10 µM in assay [1] was < 50%; in assay [2], < 50%; in assay [3], ≥ 50%; in assay [4], < 50%; in assay [5], ≥ 50%; in assay [6] it was ≥ 50%.

In the case of `CC(NC(=O)c1cncc(-c2cccnc2)c1)c1ccc(F)cc1` (stereo not drawn), the inhibition at 10 µM in assay [2], in assay [3], in assay [4], in assay [5], in assay [6] and in assay [7] was < 50% throughout.

What is called inhibition is the share of the control response that was lost under treatment.
